Test results as given in patent US10030020B2, “Spirocycle compounds and methods of making and using same” (Abide Therapeutics, Inc., priority 2016, dated 2018).

Experiments:
MAGL [1] = target: T1, MAGL (Mus musculus (Mouse), UniProt O35678); assay: In vitro competitive activity-based protein profiling (mouse brain membrane fraction or cell lysates), MAGL band; type: biochemical; conditions: mouse proteome; for IC50: competitive ABPP; for inhibition at 1 µM: read-out: MAGL % Inh 1 μM (mouse)
Experimental: In Vitro Competitive Activity-Based Protein Profiling.
Proteomes (mouse brain membrane fraction or cell lysates) (50 μL, 1.0 mg/mL total protein concentration) were preincubated with varying concentrations of inhibitors at 37° C. After 30 min, FP—Rh (1.0 μL, 50 μM in DMSO) was added and the mixture was incubated for another 30 min at 37° C. Reactions were quenched with SDS loading buffer (50 μL-4×) and run on SDS-PAGE.

FAAH [2] = target: T2, FAAH (Mus musculus (Mouse), UniProt O08914); assay: In vitro competitive activity-based protein profiling (mouse brain membrane fraction or cell lysates), FAAH band; type: biochemical; conditions: mouse proteome; for IC50: competitive ABPP; for inhibition at 1 µM: read-out: FAAH % Inh 1 μM (mouse)
T2 sequence (O08914 whole entry): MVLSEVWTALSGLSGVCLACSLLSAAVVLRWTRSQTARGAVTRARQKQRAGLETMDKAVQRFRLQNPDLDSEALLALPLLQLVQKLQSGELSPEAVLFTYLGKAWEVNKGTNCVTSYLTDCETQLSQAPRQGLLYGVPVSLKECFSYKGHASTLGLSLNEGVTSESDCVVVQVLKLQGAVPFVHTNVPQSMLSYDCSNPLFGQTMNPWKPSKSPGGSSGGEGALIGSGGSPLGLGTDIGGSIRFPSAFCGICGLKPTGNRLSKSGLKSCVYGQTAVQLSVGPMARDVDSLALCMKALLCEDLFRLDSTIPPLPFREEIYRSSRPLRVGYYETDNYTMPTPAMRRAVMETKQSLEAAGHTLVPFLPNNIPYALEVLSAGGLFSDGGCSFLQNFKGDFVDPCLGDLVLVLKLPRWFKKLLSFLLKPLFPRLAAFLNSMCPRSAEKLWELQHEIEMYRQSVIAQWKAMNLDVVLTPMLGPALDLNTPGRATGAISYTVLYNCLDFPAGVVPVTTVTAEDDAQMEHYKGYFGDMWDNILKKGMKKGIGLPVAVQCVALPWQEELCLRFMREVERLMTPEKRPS
Summary of the method: (§1)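 Competitive ABPP: proteome 1.0 mg/mL protein + inhibitor, 30 min, 37° C; FP-Rh probe (stock 50 μM in DMSO) added, 30 min, 37° C; SDS quench, SDS-PAGE, fluorescent band intensity read.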

ABHD6 [3] = target: T3, ABHD6 (Mus musculus (Mouse), UniProt Q8R2Y0); assay: In vitro competitive activity-based protein profiling (mouse brain membrane fraction or cell lysates), ABHD6 band; type: biochemical; conditions: mouse proteome; for IC50: competitive ABPP; for inhibition at 1 µM: read-out: ABHD6 % Inh 1 μM (mouse)
T3 sequence (Q8R2Y0 whole entry): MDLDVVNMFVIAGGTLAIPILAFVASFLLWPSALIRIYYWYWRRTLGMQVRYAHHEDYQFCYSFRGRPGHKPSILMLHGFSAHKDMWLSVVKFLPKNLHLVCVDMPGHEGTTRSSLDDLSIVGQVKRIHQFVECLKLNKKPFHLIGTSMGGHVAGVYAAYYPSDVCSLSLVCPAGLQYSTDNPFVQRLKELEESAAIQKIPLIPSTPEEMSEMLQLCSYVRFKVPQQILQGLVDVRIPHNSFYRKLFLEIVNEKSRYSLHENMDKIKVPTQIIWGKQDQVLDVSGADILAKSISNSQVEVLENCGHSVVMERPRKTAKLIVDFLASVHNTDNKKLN
Summary of the method: as §1

ABHD6 [4] = target: T3, ABHD6; assay: Mouse brain proteomes from inhibitor treated mice (oral gavage, sacrificed 4 h after administration, ABPP analysis), ABHD6; type: in vivo, mouse (C57Bl/6J); conditions: 5 mg/kg oral gavage
Summary of the method: (§2)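 Oral dosing of C57Bl/6J wild-type mice at 5 mg/kg, brain collection 4 h afterwards, then ABPP of brain proteomes to give % target inhibition.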

FAAH [5] = target: T2, FAAH; assay: Mouse brain proteomes from inhibitor treated mice (oral gavage, sacrificed 4 h after administration, ABPP analysis), FAAH; type: in vivo, mouse (C57Bl/6J); conditions: 5 mg/kg oral gavage
Summary of the method: as §2

MAGL [6] = target: T1, MAGL; assay: Mouse brain proteomes from inhibitor treated mice (oral gavage, sacrificed 4 h after administration, ABPP analysis); type: in vivo, mouse (C57Bl/6J); conditions: 5 mg/kg oral gavage
Summary of the method: as §2

T1 sequence (O35678 whole entry): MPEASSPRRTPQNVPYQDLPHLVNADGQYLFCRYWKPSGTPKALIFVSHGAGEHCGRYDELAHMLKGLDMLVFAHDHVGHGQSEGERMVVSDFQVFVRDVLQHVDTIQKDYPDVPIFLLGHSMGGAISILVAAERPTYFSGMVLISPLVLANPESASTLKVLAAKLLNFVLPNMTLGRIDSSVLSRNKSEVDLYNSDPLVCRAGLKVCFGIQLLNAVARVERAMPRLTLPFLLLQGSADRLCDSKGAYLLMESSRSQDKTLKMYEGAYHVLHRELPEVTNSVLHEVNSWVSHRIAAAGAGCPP

Row | Compound | IC50 (MAGL [1]) [nM] | IC50 (FAAH [2]) [nM] | IC50 (ABHD6 [3]) [nM] | ABHD6 % Inh 5 mg/kg (mouse) (ABHD6 [4]) | FAAH % Inh 5 mg/kg (mouse) (FAAH [5]) | MAGL % Inh 5 mg/kg (mouse) (MAGL [6]) | inhibition at 1 µM (MAGL [1]) [%] | inhibition at 1 µM (FAAH [2]) [%] | inhibition at 1 µM (ABHD6 [3]) [%]
1 | O=C(OC(C(F)(F)F)C(F)(F)F)N1CCC2(CCCN2Cc2cc(N3CCC(F)CC3)cc(C(F)(F)F)c2)CC1 [Example 45, 1,1,1,3,3,3-Hexafluoropropan-2-yl 1-(3-(4-fluoropiperidin-1-yl)-5-(trifluoromethyl)benzyl)-1,8-diazaspiro[4.5]decane-8-carboxylate] | < 100 | > 1000 | > 1000 | # (# is <25%) | # (# is <25%) | ## (## is equal to or greater than 25% but less than 75%) | – | – | –
2 | O=C(OC(C(F)(F)F)C(F)(F)F)N1CCC2(CCCN2Cc2ccc(C(F)(F)F)cc2Oc2cccnc2)CC1 [Example 173, 1,1,1,3,3,3-Hexafluoropropan-2-yl 1-(2-(pyridin-3-yloxy)-4-(trifluoromethyl)benzyl)-1,8-diazaspiro[4.5]decane-8-carboxylate] | < 100 | > 1000 | > 1000 | # (# is <25%) | # (# is <25%) | ## (## is equal to or greater than 25% but less than 75%) | > 75 | < 25 | 25 to 75
3 | O=C(OC(C(F)(F)F)C(F)(F)F)N1CCC2(CCCN2Cc2ccc(N3CCCC3)c(Cl)c2)CC1 [Example 128, 1,1,1,3,3,3-Hexafluoropropan-2-yl 1-(3-chloro-4-(pyrrolidin-1-yl)benzyl)-1,8-diazaspiro[4.5]decane-8-carboxylate] | < 100 | > 1000 | > 1000 | # (# is <25%) | # (# is <25%) | ### (### is ≥75%) | > 75 | < 25 | < 25
4 | O=C(OC(C(F)(F)F)C(F)(F)F)N1CCC2(CCCN2Cc2ccc(Cl)cc2N2CCOCC2)CC1 [Example 77, 1,1,1,3,3,3-Hexafluoropropan-2-yl 1-(4-chloro-2-morpholinobenzyl)-1,8-diazaspiro[4.5]decane-8-carboxylate] | < 100 | > 1000 | > 1000 | # (# is <25%) | # (# is <25%) | ### (### is ≥75%) | > 75 | < 25 | < 25
5 | O=C(COc1cc(CN2CCCC23CCN(C(=O)OC(C(F)(F)F)C(F)(F)F)CC3)cc(C(F)(F)F)c1)N1CCCC1 [Example 168, 1,1,1,3,3,3-Hexafluoropropan-2-yl 1-(3-(2-oxo-2-(pyrrolidin-1-yl)ethoxy)-5-(trifluoromethyl)benzyl)-1,8-diazaspiro[4.5]decane-8-carboxylate] | < 100 | > 1000 | > 1000 | # (# is <25%) | # (# is <25%) | ## (## is equal to or greater than 25% but less than 75%) | > 75 | < 25 | < 25
6 | O=C(OC(C(F)(F)F)C(F)(F)F)N1CCC2(CCCN2Cc2cc(OC(F)(F)F)cc(N3CCOCC3)c2)CC1 [Example 37, 1,1,1,3,3,3-Hexafluoropropan-2-yl 1-(3-morpholino-5-(trifluoromethoxy)benzyl)-1,8-diazaspiro[4.5]decane-8-carboxylate] | < 100 | > 1000 | > 1000 | # (# is <25%) | # (# is <25%) | ### (### is ≥75%) | > 75 | < 25 | < 25
7 | CCOc1cccc(CN2CCCC23CCN(C(=O)OC(C(F)(F)F)C(F)(F)F)CC3)c1 [Example 5, 1,1,1,3,3,3-Hexafluoropropan-2-yl 1-(3-ethoxybenzyl)-1,8-diazaspiro[4.5]decane-8-carboxylate] | < 100 | > 1000 | > 1000 | ## (## is equal to or greater than 25% but less than 75%) | # (# is <25%) | ### (### is ≥75%) | > 75 | < 25 | < 25
8 | Cc1cc(CN2CCCC23CCN(C(=O)OC(C(F)(F)F)C(F)(F)F)CC3)ccc1C(F)(F)F [Example 177, 1,1,1,3,3,3-Hexafluoropropan-2-yl 1-(3-methyl-4-(trifluoromethyl)benzyl)-1,8-diazaspiro[4.5]decane-8-carboxylate] | 100 to 1000 | > 1000 | > 1000 | # (# is <25%) | # (# is <25%) | ### (### is ≥75%) | > 75 | < 25 | 25 to 75
9 | O=C(OC(C(F)(F)F)C(F)(F)F)N1CCC2(CCCN2Cc2ccc(C(F)(F)F)cc2N2CCCCC2)CC1 [Example 78, 1,1,1,3,3,3-Hexafluoropropan-2-yl 1-(2-(piperidin-1-yl)-4-(trifluoromethyl)benzyl)-1,8-diazaspiro[4.5]decane-8-carboxylate] | < 100 | > 1000 | > 1000 | # (# is <25%) | # (# is <25%) | ## (## is equal to or greater than 25% but less than 75%) | > 75 | < 25 | < 25
10 | O=C(OC(C(F)(F)F)C(F)(F)F)N1CCC2(CCN(Cc3ccc(Cl)cc3N3CCCC3)C2)CC1 [Example 17, 1,1,1,3,3,3-Hexafluoropropan-2-yl 2-(4-chloro-2-(pyrrolidin-1-yl)benzyl)-2,8-diazaspiro[4.5]decane-8-carboxylate] | < 100 | > 1000 | > 1000 | # (# is <25%) | # (# is <25%) | ## (## is equal to or greater than 25% but less than 75%) | > 75 | < 25 | ≥ 75

Results, then the molecule that gave them:

Row | IC50 (MAGL [1]) [nM] | IC50 (FAAH [2]) [nM] | IC50 (ABHD6 [3]) [nM] | ABHD6 % Inh 5 mg/kg (mouse) (ABHD6 [4]) | FAAH % Inh 5 mg/kg (mouse) (FAAH [5]) | MAGL % Inh 5 mg/kg (mouse) (MAGL [6]) | inhibition at 1 µM (MAGL [1]) [%] | inhibition at 1 µM (FAAH [2]) [%] | inhibition at 1 µM (ABHD6 [3]) [%] | Compound
11 | < 100 | > 1000 | > 1000 | # (# is <25%) | # (# is <25%) | # (# is <25%) | > 75 | < 25 | < 25 | O=C(OC(C(F)(F)F)C(F)(F)F)N1CCC2(CCCN2Cc2cc(Oc3nc4ccccc4s3)cc(C(F)(F)F)c2)CC1 [Example 172, 1,1,1,3,3,3-Hexafluoropropan-2-yl 1-(3-(benzo[d]thiazol-2-yloxy)-5-(trifluoromethyl)benzyl)-1,8-diazaspiro[4.5]decane-8-carboxylate]
12 | 100 to 1000 | > 1000 | > 1000 | # (# is <25%) | # (# is <25%) | ### (### is ≥75%) | > 75 | < 25 | < 25 | CCOc1ccc(CN2CCCC23CCN(C(=O)OC(C(F)(F)F)C(F)(F)F)CC3)cc1 [Example 4, 1,1,1,3,3,3-Hexafluoropropan-2-yl 1-(4-ethoxybenzyl)-1,8-diazaspiro[4.5]decane-8-carboxylate]
13 | < 100 | > 1000 | 100 to 1000 | # (# is <25%) | # (# is <25%) | ### (### is ≥75%) | > 75 | < 25 | ≥ 75 | O=C(OC(C(F)(F)F)C(F)(F)F)N1CCC2(CCN(Cc3ccc(C(F)(F)F)cc3N3CCOCC3)C2)CC1 [Example 22, 1,1,1,3,3,3-Hexafluoropropan-2-yl 2-(2-morpholino-4-(trifluoromethyl)benzyl)-2,8-diazaspiro[4.5]decane-8-carboxylate]
14 | < 100 | > 1000 | > 1000 | # (# is <25%) | # (# is <25%) | ### (### is ≥75%) | – | – | – | COc1cc(Cl)ccc1CN1CCCC12CCN(C(=O)OC(C(F)(F)F)C(F)(F)F)CC2 [Example 9, 1,1,1,3,3,3-Hexafluoropropan-2-yl 1-(4-chloro-2-methoxybenzyl)-1,8-diazaspiro[4.5]decane-8-carboxylate]
